The source of these data is patent US20090143279A1 (priority 2007, published 2009).

Read-outs that look alike come from different tables or passages of the source.

The test system of test [1] is mitochondrial membrane potential. Type of test: cell-based, mouse.
The next test has as its system reactive oxygen species. In kind it is cell-based, mouse.
The subject of another test is OXPHOS gene expression. In kind it is cell-based, mouse.
In a further test the test system is nuOXPHOS transcripts. Type of test: cell-based, mouse.
The next test concerns mtOXPHOS transcripts. In kind it is cell-based, mouse.
The next test has as its system cytochrome c. Type of test: cell-based, mouse.
For test [2], the system named is cellular dehydrogenase activity.
Setting [3] is: composite Z-score vs DMSO, Conc 20 μM.
[4] abbreviates: 20 μM, composite Z-score vs DMSO.
The mark [5] stands for this setting: normalized composite Z-score vs mock-treated (DMSO) wells, Conc 20 μM.
[6] abbreviates: composite Z-score vs mock-treated (DMSO) wells, Conc 20 μM.
The mark [7] stands for this setting: composite Z-score vs mock-treated (DMSO) wells, concentration of each compound in μM.

Consider `NC(=O)N/N=C/c1ccc([N+](=O)[O-])o1` [nitrofurazone], for which the ΔΨm in test [1] (setting [3]) is reported as −0.185. This compound showed an ROS in the test on reactive oxygen species (setting [3]) of 2.173. Moreover, the GE-HTS in the test with OXPHOS gene expression (setting [3]) is given as −0.199. In the test on nuOXPHOS transcripts (setting [3]), this compound had a nucOX of 0.038. For the same compound, in the test on mtOXPHOS transcripts (setting [3]), the mitoOX is −0.643. The same compound registered a cyt c in the test on cytochrome c (setting [3]) of 0.785. The compound further gave a Viability with C2C12 myotubes (setting [3]) of 0.544. For the same compound, the MTT in test [2] (setting [3]) is recorded as −0.617.

In the case of `NC(=O)c1cc([N+](=O)[O-])cc([N+](=O)[O-])c1` [nitromide], in test [1] (setting [4]), the ΔΨm stood at 1.648. Also, the ROS in the test with reactive oxygen species (setting [4]) was 1.299. Further, the GE-HTS in the test with OXPHOS gene expression (setting [4]) is recorded as −0.128. In the test with nuOXPHOS transcripts (setting [4]), this compound yielded a nucOX of −0.100. Moreover, in the test with mtOXPHOS transcripts (setting [4]), the mitoOX is given as −0.086. In the test on cytochrome c (setting [4]), this compound returned a cyt c of −0.346. In the test on C2C12 myotubes (setting [4]), this compound showed a Viability of −0.259. In test [2] (setting [4]), the MTT was −1.071.

Consider `CN1Cc2c(N)cccc2C(c2ccccc2)C1` (centres unmarked) [nomifensin], for which the ΔΨm is listed as −0.329 in test [1] and −0.059 in test [1] (setting [4]). Also, the ROS with reactive oxygen species was 3.133; in the test on reactive oxygen species (setting [4]) it was 3.112. For the same compound, the GE-HTS in the test on OXPHOS gene expression was −0.331; in the test on OXPHOS gene expression (setting [4]) it was −0.131. The nucOX is −0.571 with nuOXPHOS transcripts and −0.169 with nuOXPHOS transcripts (setting [4]). The mitoOX with mtOXPHOS transcripts is 0.181; in the test on mtOXPHOS transcripts (setting [4]), −0.026. In addition, the figures for the cyt c in the test with cytochrome c and in the test on cytochrome c (setting [4]) were −1.298 and −1.233, respectively. Besides, the Viability in the test with C2C12 myotubes is on record as 0.121; with C2C12 myotubes (setting [4]) it was 0.525. In addition, the MTT in test [2] was −0.534; in test [2] (setting [4]), −0.885.

Take `CCCCC[C@H](CC(=O)O)C(=O)O` [nonic acid]: the ΔΨm in test [1] (setting [5]) is −0.931. Moreover, the ROS in the test with reactive oxygen species (setting [5]) was 1.211. The GE-HTS in the test on OXPHOS gene expression (setting [5]) is on record as −0.080. The nucOX in the test on nuOXPHOS transcripts (setting [5]) is −0.104. In addition, the mitoOX in the test on mtOXPHOS transcripts (setting [5]) is on record as 0.061. Further, the cyt c in the test with cytochrome c (setting [5]) was −0.133. Moreover, the Viability in the test with C2C12 myotubes (setting [5]) was −1.043. Moreover, the MTT in test [2] (setting [5]) is recorded as −1.857.

Regarding `Cc1cc(O)c(C=O)c2c1C(=O)Oc1c(C)c(O)c3c(c1O2)C(O)OC3=O` (centres unmarked) [norstictic acid], the ΔΨm is given as −0.628 in test [1] (setting [3]) and 0.903 in test [1] (setting [6]). In addition, the ROS in the test with reactive oxygen species (setting [3]) is listed as −0.426; with reactive oxygen species (setting [6]), 0.560. Also, the GE-HTS is on record as −0.800 with OXPHOS gene expression (setting [3]) and 0.518 with OXPHOS gene expression (setting [6]). In addition, the nucOX is given as −0.639 with nuOXPHOS transcripts (setting [3]) and 0.774 in the test on nuOXPHOS transcripts (setting [6]). The results for the mitoOX in the test on mtOXPHOS transcripts (setting [3]) and in the test on mtOXPHOS transcripts (setting [6]) were −1.023 and −0.148, respectively. Besides, the cyt c worked out at 0.467 in the test on cytochrome c (setting [3]) and 0.471 in the test with cytochrome c (setting [6]). Further, the values for the Viability in the test with C2C12 myotubes (setting [3]) and with C2C12 myotubes (setting [6]) were 0.730 and −0.899, respectively. The results for the MTT in test [2] (setting [3]) and in test [2] (setting [6]) were −0.613 and −0.567, respectively.

For `C[C@@H]1[C@H](O)[C@@H](C)/C=C/C=C/CC/C=C/C=C/C=C/C=C/C(O[C@H]2O[C@H](C)[C@@H](O)[C@H](N)[C@@H]2O)CC2O[C@](O)(CC(O)C(O)CCC(O)CC(O)CC(O)CC(=O)O[C@H]1C)CC(O)C2C(=O)O` (some centres unmarked) [nystatin], the ΔΨm in test [1] (setting [3]) was −0.356. The ROS with reactive oxygen species (setting [3]) was −0.043. For the same compound, the GE-HTS in the test on OXPHOS gene expression (setting [3]) amounted to 0.326. In the test on nuOXPHOS transcripts (setting [3]), the nucOX was 0.284. The mitoOX in the test on mtOXPHOS transcripts (setting [3]) is 0.289. The compound further had a cyt c in the test on cytochrome c (setting [3]) of −0.059. This compound showed a Viability with C2C12 myotubes (setting [3]) of 0.794. This compound displayed an MTT in test [2] (setting [3]) of 0.161.

In test [1] (setting [7]), `C[C@@H]1[C@H](O)[C@@H](C)/C=C/C=C/CC/C=C/C=C/C=C/C=C/C(O[C@H]2O[C@H](C)[C@@H](O)[C@H](N)[C@@H]2O)CC2O[C@](O)(CC(O)C(O)CCC(O)CC(O)CC(O)CC(=O)O[C@H]1C)CC(O)C2C(=O)O` (some centres unmarked) [nystatine] showed a ΔΨm of −0.660. This compound also had an ROS in the test on reactive oxygen species (setting [7]) of 0.765. This compound also yielded a GE-HTS in the test on OXPHOS gene expression (setting [7]) of −0.436. Moreover, the nucOX with nuOXPHOS transcripts (setting [7]) is reported as −0.272. Further, the mitoOX in the test with mtOXPHOS transcripts (setting [7]) is recorded as −0.683. This compound also gave a cyt c with cytochrome c (setting [7]) of 0.061. This compound also registered a Viability with C2C12 myotubes (setting [7]) of −0.430. The MTT in test [2] (setting [7]) was −1.147.

The compound `CC1(C)OC(=O)C=CC2(C)C1CC(O)C1(C)C2CCC2(C)C(c3ccoc3)OC(=O)C3OC321` (centres unmarked) [obacunol] returned a ΔΨm in test [1] (setting [6]) of 0.464. In the test on reactive oxygen species (setting [6]), this compound returned an ROS of −0.134. The compound further returned a GE-HTS in the test with OXPHOS gene expression (setting [6]) of −0.906. Besides, the nucOX with nuOXPHOS transcripts (setting [6]) was −0.927. In the test with mtOXPHOS transcripts (setting [6]), this compound registered a mitoOX of −0.734. The compound further returned a cyt c with cytochrome c (setting [6]) of 0.859. This compound also had a Viability with C2C12 myotubes (setting [6]) of 2.016. The same compound yielded an MTT in test [2] (setting [6]) of −0.982.

`C=C(C)[C@H]1COc2cc3oc(=O)ccc3cc2O1` [obliquin] had a ΔΨm in test [1] (setting [6]) of 0.088. This compound returned an ROS with reactive oxygen species (setting [6]) of 0.977. The same compound showed a GE-HTS in the test on OXPHOS gene expression (setting [6]) of −0.313. This compound also returned a nucOX in the test on nuOXPHOS transcripts (setting [6]) of −0.459. This compound also displayed a mitoOX with mtOXPHOS transcripts (setting [6]) of 0.105. This compound showed a cyt c in the test on cytochrome c (setting [6]) of −1.172. The compound further gave a Viability with C2C12 myotubes (setting [6]) of 0.539. This compound came in with an MTT in test [2] (setting [6]) of −0.268.

In turn, `C[C@@H]([C@H]1OC(C)(C)[C@@H](O)[C@H]1O)[C@@H]1CC[C@]2(C)C3=CC[C@H]4C(C)(C)C(=O)CC[C@]4(C)[C@H]3CC[C@@]12C` [odoratone] yielded a ΔΨm in test [1] (setting [6]) of 0.367. Further, the ROS in the test with reactive oxygen species (setting [6]) is recorded as 0.083. The compound also showed a GE-HTS with OXPHOS gene expression (setting [6]) of −0.994. This compound showed a nucOX in the test on nuOXPHOS transcripts (setting [6]) of −0.988. The compound also yielded a mitoOX with mtOXPHOS transcripts (setting [6]) of −0.873. The same compound came in with a cyt c in the test with cytochrome c (setting [6]) of 0.707. This compound also returned a Viability with C2C12 myotubes (setting [6]) of 0.542. Besides, the MTT in test [2] (setting [6]) is recorded as −1.060.

On to `CC1COc2c(N3CCN(C)CC3)c(F)cc3c(=O)c(C(=O)O)cn1c23` (centres unmarked) [ofloxacin], for which the ΔΨm in test [1] was −0.891; in test [1] (setting [4]), −0.281. The ROS in the test with reactive oxygen species is 0.908; with reactive oxygen species (setting [4]), −0.182. Moreover, the GE-HTS with OXPHOS gene expression was 0.182; in the test on OXPHOS gene expression (setting [4]), −0.458. Besides, the values for the nucOX with nuOXPHOS transcripts and with nuOXPHOS transcripts (setting [4]) were 0.059 and −0.622, respectively. Moreover, the mitoOX was 0.353 in the test on mtOXPHOS transcripts and −0.041 in the test on mtOXPHOS transcripts (setting [4]). Also, the cyt c was 0.492 in the test on cytochrome c and 0.309 in the test with cytochrome c (setting [4]). The results for the Viability in the test with C2C12 myotubes and with C2C12 myotubes (setting [4]) were −0.425 and −1.148, respectively. Moreover, the MTT in test [2] is reported as −0.967; in test [2] (setting [4]), −1.248.

Take `CC1(C)CC[C@]2(C(=O)O)CC[C@]3(C)C(=CC[C@@H]4[C@@]5(C)CC[C@H](O)C(C)(C)[C@@H]5CC[C@]43C)[C@@H]2C1` [oleanoic acid]: in test [1] (setting [6]), the ΔΨm is on record as −0.910. This compound also yielded an ROS in the test on reactive oxygen species (setting [6]) of −0.144. Moreover, the GE-HTS in the test with OXPHOS gene expression (setting [6]) is recorded as −1.379. The compound also showed a nucOX in the test with nuOXPHOS transcripts (setting [6]) of −1.408. In the test on mtOXPHOS transcripts (setting [6]), this compound displayed a mitoOX of −1.014. The cyt c in the test with cytochrome c (setting [6]) came out at 0.754. Besides, the Viability in the test on C2C12 myotubes (setting [6]) is on record as 0.492. Further, in test [2] (setting [6]), the MTT is given as −0.720.

`Cc1cc(O)cc(O)c1C(=O)O` [orsellinic acid] showed a ΔΨm in test [1] (setting [6]) of −0.846. Also, the ROS in the test on reactive oxygen species (setting [6]) is given as 1.236. Further, the GE-HTS in the test with OXPHOS gene expression (setting [6]) was −0.348. In the test with nuOXPHOS transcripts (setting [6]), this compound returned a nucOX of −0.350. For the same compound, the mitoOX with mtOXPHOS transcripts (setting [6]) is given as −0.333. Also, in the test with cytochrome c (setting [6]), the cyt c is recorded as −0.015. Further, in the test with C2C12 myotubes (setting [6]), the Viability is −0.320. In test [2] (setting [6]), this compound yielded an MTT of −1.311.
